Results from PubChem BioAssay AID330 (DTP/NCI, 2004).
“And” between values parts separate entries of the source, which are not always exact repeats. Identical values can stand only once. Inconclusive results and toxic doses are left out.

System: P388 leukemia ip, CD2F1 mice, survival T/C
Experiment: NCI In Vivo Anticancer Drug Screen. Data for tumor model P388 Leukemia (intraperitoneal) in CD2F1 (CDF1) mice
Details: endpoint: median survival time, higher = longer survival
Summary of the method: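 Mice carrying the transplanted tumor received test compound or vehicle. Survival was recorded in each group, and the value is the treated-group measurement divided by that of the vehicle-treated control group.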

[1] = dose: 50.0 mg/kg/injection, schedule: Q01DX005 (ip), vehicle: Klucel (hydroxypropylcellulose) (HPC)
[2] = dose: 100.0 mg/kg/injection, schedule: Q01DX005 (ip), vehicle: Klucel (hydroxypropylcellulose) (HPC)
[3] = dose: 200.0 mg/kg/injection, schedule: Q01DX005 (ip), vehicle: Klucel (hydroxypropylcellulose) (HPC)
[4] = dose: 50.0 mg/kg/injection, schedule: Q01DX009 (ip), vehicle: Klucel (hydroxypropylcellulose) (HPC)
[5] = dose: 100.0 mg/kg/injection, schedule: Q01DX009 (ip), vehicle: Klucel (hydroxypropylcellulose) (HPC)
[6] = dose: 50.0 mg/kg/injection, schedule: Q01DX005 (ip), vehicle: saline with Tween-80
[7] = dose: 100.0 mg/kg/injection, schedule: Q01DX005 (ip), vehicle: saline with Tween-80
[8] = dose: 200.0 mg/kg/injection, schedule: Q01DX005 (ip), vehicle: saline with Tween-80
[9] = dose: 50.0 mg/kg/injection, schedule: Q01DX009 (ip), vehicle: saline with Tween-80
[10] = dose: 60.0 mg/kg/injection, schedule: Q01DX005 (ip), vehicle: Klucel (hydroxypropylcellulose) (HPC)
[11] = dose: 120.0 mg/kg/injection, schedule: Q01DX005 (ip), vehicle: Klucel (hydroxypropylcellulose) (HPC)
[12] = dose: 100.0 mg/kg/injection, schedule: Q01DX009 (ip), vehicle: saline with Tween-80
[13] = dose: 200.0 mg/kg/injection, schedule: Q01DX009 (ip), vehicle: saline with Tween-80
[14] = dose: 50.0 mg/kg/injection, schedule: Q01DX009 (ip), vehicle: saline
[15] = dose: 100.0 mg/kg/injection, schedule: Q01DX009 (ip), vehicle: saline
[16] = dose: 200.0 mg/kg/injection, schedule: Q01DX009 (ip), vehicle: Klucel (hydroxypropylcellulose) (HPC)
[17] = dose: 60.0 mg/kg/injection, schedule: Q01DX005 (ip), vehicle: saline with Tween-80
[18] = dose: 120.0 mg/kg/injection, schedule: Q01DX005 (ip), vehicle: saline with Tween-80
[19] = dose: 240.0 mg/kg/injection, schedule: Q01DX005 (ip), vehicle: saline with Tween-80
[20] = dose: 50.0 mg/kg/injection, schedule: Q01DX005 (ip), vehicle: saline
[21] = dose: 100.0 mg/kg/injection, schedule: Q01DX005 (ip), vehicle: saline

COC(=O)CCSC(=O)Nc1cccc(C(F)(F)F)c1
T/C [1]: 97 % of control
T/C [2]: 98 % of control
T/C [3]: 104 % of control

CC(C(=O)O)S(=O)(=O)C(C)C(=O)O (configuration not stated)
T/C (dose: 100.0 mg/kg/injection, schedule: Q04DX002 (ip), vehicle: saline): 98 % of control
T/C (dose: 200.0 mg/kg/injection, schedule: Q04DX002 (ip), vehicle: saline): 91 % of control

COCCO[Si](OCCOC)(OCCOC)OCCOC
T/C [4]: 99 % of control
T/C [5]: 87 % of control

O=C1c2ccccc2C(=O)c2c1c(Cl)cc1c(=O)c3cc(Cl)cc(Cl)c3[nH]c21
T/C [6]: 99 % of control
T/C [7]: 95 % of control
T/C [8]: 92 % of control

CCCCOB(OCCCC)C(C)C(C#N)C#N (configuration not stated)
T/C (dose: 50.0 mg/kg/injection, schedule: Q04DX003 (ip), vehicle: saline): 92 % of control
T/C (dose: 100.0 mg/kg/injection, schedule: Q04DX003 (ip), vehicle: saline): 92 % of control
T/C (dose: 200.0 mg/kg/injection, schedule: Q04DX003 (ip), vehicle: saline): 96 % of control

CN(CCCNc1c2ccccc2nc2ccccc12)CCCNc1c2ccccc2nc2ccccc12
T/C (dose: 1.25 mg/kg/injection, schedule: Q01DX009 (ip), vehicle: other): 115 % of control

O=C(O)c1cc(-c2ccccc2)[nH]c1-c1ccccc1
T/C (dose: 12.5 mg/kg/injection, schedule: Q01DX009 (ip), vehicle: saline with Tween-80): 103 % of control
T/C (dose: 25.0 mg/kg/injection, schedule: Q01DX009 (ip), vehicle: saline with Tween-80): 106 % of control
T/C [9]: 90 % of control

C/C(=N/N=C(N)N)c1cnn(C(=N)N)c1C
T/C [10]: 99 % of control
T/C [11]: 114 % of control

CC(=O)C(=O)c1ccc(O)c(C)c1O
T/C [9]: 107 % of control
T/C [12]: 104 % of control
T/C [13]: 105 % of control

Cc1cccc(NC(=O)NC2CCCCC2)c1
T/C [14]: 103 % of control
T/C [15]: 102 % of control
T/C (dose: 200.0 mg/kg/injection, schedule: Q01DX009 (ip), vehicle: saline): 93 % of control

O=C1C(CO)=C[C@H](O)[C@H]2O[C@@H]12
T/C (dose: 6.25 mg/kg/injection, schedule: Q01DX009 (ip), vehicle: saline + alcohol): 119 % of control
T/C (dose: 12.5 mg/kg/injection, schedule: Q01DX009 (ip), vehicle: saline + alcohol): 152 % of control
T/C (dose: 25.0 mg/kg/injection, schedule: Q01DX009 (ip), vehicle: saline + alcohol): 152 % of control and 157 % of control
T/C (dose: 50.0 mg/kg/injection, schedule: Q01DX009 (ip), vehicle: saline + alcohol): 106 % of control

O=C(c1ccccc1)c1ccccc1-c1nc2ccccc2c(=O)o1
T/C [4]: 100 % of control
T/C [5]: 95 % of control
T/C [16]: 109 % of control

Nc1c(C(=O)O)c(Br)cc2c1C(=O)c1ccccc1C2=O
T/C [1]: 99 % of control
T/C [2]: 99 % of control
T/C [3]: 107 % of control

Cc1ccccc1SSc1ccccc1C
T/C [9]: 113 % of control

O=C1CSC(c2cccc(O)c2O)N1c1nncs1 (configuration not stated)
T/C [17]: 111 % of control
T/C [18]: 96 % of control
T/C [19]: 96 % of control

CC(=O)OC1CC2C3(C)CCC4C(C)(C)CCCC4(C)C3CC(O)C2(C)C2C1=COC2OC(C)=O (configuration not stated)
T/C (dose: 15.0 mg/kg/injection, schedule: Q01DX005 (ip), vehicle: Klucel (hydroxypropylcellulose) (HPC)): 102 % of control
T/C (dose: 30.0 mg/kg/injection, schedule: Q01DX005 (ip), vehicle: Klucel (hydroxypropylcellulose) (HPC)): 120 % of control

CCCOC(=O)c1ccccc1OP(=O)(N(C)C)N(C)C
T/C [20]: 93 % of control
T/C [21]: 98 % of control
T/C (dose: 200.0 mg/kg/injection, schedule: Q01DX005 (ip), vehicle: saline): 108 % of control

CC1(C)OCC(C(O)c2nc3ccccc3nc2C(=O)Nc2ccccc2N)O1 (configuration not stated)
T/C (dose: 100.0 mg/kg/injection, schedule: Q01DX001 (ip), vehicle: saline with Tween-80): 97 % of control
T/C (dose: 200.0 mg/kg/injection, schedule: Q01DX001 (ip), vehicle: saline with Tween-80): 92 % of control
T/C (dose: 400.0 mg/kg/injection, schedule: Q01DX001 (ip), vehicle: saline with Tween-80): 86 % of control

COC(=O)c1ccc(SCC2=Nc3c(nc(N)[nH]c3=O)NCC2)cc1
T/C (dose: 12.5 mg/kg/injection, schedule: Q01DX009 (ip), vehicle: distilled water + Tween-80): 99 % of control
T/C (dose: 25.0 mg/kg/injection, schedule: Q01DX009 (ip), vehicle: distilled water + Tween-80): 93 % of control
T/C (dose: 50.0 mg/kg/injection, schedule: Q01DX009 (ip), vehicle: distilled water + Tween-80): 90 % of control
T/C (dose: 100.0 mg/kg/injection, schedule: Q01DX009 (ip), vehicle: distilled water + Tween-80): 90 % of control

C1COCCOCCOCCO1.[Br][Sn]([Br])([Br])[Br]
T/C [10]: 103 % of control
T/C [11]: 107 % of control

CC1(C)N2c3ccc(Cl)cc3C(c3ccccc3)N1c1ccc(Cl)cc1C2c1ccccc1 (configuration not stated)
T/C [4]: 98 % of control
T/C [5]: 95 % of control
T/C [16]: 95 % of control

CCC(=O)C(=O)NC(C)C(C)=O (configuration not stated)
T/C [6]: 99 % of control
T/C [7]: 98 % of control
T/C [8]: 100 % of control

Cc1cc(C(=O)NN)no1
T/C [14]: 99 % of control
T/C [15]: 100 % of control

COc1ccc(NC(=O)Oc2ccc3c(C)cc(=O)oc3c2)c(OC)c1
T/C [12]: 122 % of control
T/C [13]: 121 % of control
T/C (dose: 400.0 mg/kg/injection, schedule: Q01DX009 (ip), vehicle: saline with Tween-80): 91 % of control

CC1=C(Br)S(=O)(=O)N(c2ccccc2)C(CBr)=C1Br
T/C [17]: 100 % of control
T/C [18]: 91 % of control
T/C [19]: 93 % of control

NC(=O)c1ccc(Cl)cc1C(N)=O
T/C [1]: 99 % of control
T/C [2]: 105 % of control
T/C [3]: 99 % of control

COc1cc2c(cc1OC)C13CCN4C(=O)C(=O)C(CC41)C1C(OCC(=O)O)CC(=O)N2C13 (configuration not stated)
T/C (dose: 60.0 mg/kg/injection, schedule: Q01DX005 (ip), vehicle: saline): 101 % of control
T/C (dose: 120.0 mg/kg/injection, schedule: Q01DX005 (ip), vehicle: saline): 101 % of control
T/C (dose: 240.0 mg/kg/injection, schedule: Q01DX005 (ip), vehicle: saline): 100 % of control

O=C1c2cccc3cccc(c23)C2C1N2C1CCCCC1 (configuration not stated)
T/C (dose: 25.0 mg/kg/injection, schedule: Q01DX001 (ip), vehicle: saline sonified): 95 % of control
T/C (dose: 50.0 mg/kg/injection, schedule: Q01DX001 (ip), vehicle: saline sonified): 104 % of control
T/C (dose: 100.0 mg/kg/injection, schedule: Q01DX001 (ip), vehicle: saline sonified): 86 % of control

CN(N=O)N1C(=O)SCC(c2ccccc2)(c2ccccc2)C1=O
T/C [10]: 97 % of control
T/C [11]: 90 % of control
T/C (dose: 240.0 mg/kg/injection, schedule: Q01DX005 (ip), vehicle: Klucel (hydroxypropylcellulose) (HPC)): 88 % of control

CC#CC#C/C=C1/C=CC(=O)O1
T/C (dose: 12.5 mg/kg/injection, schedule: Q01DX009 (ip), vehicle: Klucel (hydroxypropylcellulose) (HPC)): 105 % of control
T/C (dose: 25.0 mg/kg/injection, schedule: Q01DX009 (ip), vehicle: Klucel (hydroxypropylcellulose) (HPC)): 104 % of control
T/C [4]: 107 % of control
T/C [5]: 107 % of control

Cc1ccnc(NS(=O)(=O)c2ccc(N=CC3C(=O)N(c4ccccc4)N(c4ccccc4)C3=O)cc2)n1
T/C [4]: 96 % of control
T/C [16]: 101 % of control

N#CC(C(=O)CCc1nc2ccccc2[nH]1)c1ccccc1Cl (configuration not stated)
T/C [17]: 111 % of control
T/C [18]: 105 % of control
T/C [19]: 96 % of control

Cc1ccc2c(c1)=N/C(=N/c1[nH]c(O)c3ccccc13)N=2
T/C [9]: 100 % of control and 96 % of control
T/C [12]: 99 % of control

CCN(CC)CCCC(C)Nc1nccc2c(Cl)cccc12 (configuration not stated)
T/C [20]: 108 % of control
T/C [21]: 109 % of control
